Like-named read-outs stand apart in the source and are kept apart here.
Columns and labels:
Assay in all cases: KINOMEscan assay (Eurofins DiscoverX)
Assay type in all cases: binding
kinome (kinase panel) [1] = biological target: T1, kinome (kinase panel) (Homo sapiens, UniProt O15075); settings: DCAMKL1 (Entrez DCLK1); 1000 nM; read-out: Percent Control
T1 construct: purchased Eurofins DiscoverX

kinome (kinase panel) [2] = biological target: T2, kinome (kinase panel) (Homo sapiens, UniProt O15264); settings: p38-delta (Entrez MAPK13); 1000 nM; read-out: Percent Control
T2 construct: purchased Eurofins DiscoverX

kinome (kinase panel) [3] = biological target: T3, kinome (kinase panel) (Homo sapiens, UniProt O96013); settings: PAK4; 1000 nM; read-out: Percent Control
T3 construct: purchased Eurofins DiscoverX

kinome (kinase panel) [4] = biological target: T4, kinome (kinase panel) (Homo sapiens, UniProt P00533, G719S); settings: […]; 1000 nM; read-out: Percent Control
T4 construct: purchased Eurofins DiscoverX

kinome (kinase panel) [5] = biological target: T5, kinome (kinase panel) (Homo sapiens, UniProt P06239); settings: LCK; 1000 nM; read-out: Percent Control
T5 construct: purchased Eurofins DiscoverX

kinome (kinase panel) [6] = biological target: T6, kinome (kinase panel) (Homo sapiens, UniProt P07332); settings: FES; 1000 nM; read-out: Percent Control
T6 construct: purchased Eurofins DiscoverX

kinome (kinase panel) [7] = biological target: T7, kinome (kinase panel) (Homo sapiens, UniProt P07948); settings: LYN; 1000 nM; read-out: Percent Control
T7 construct: purchased Eurofins DiscoverX

kinome (kinase panel) [8] = biological target: T8, kinome (kinase panel) (Homo sapiens, UniProt P07949, V804L); settings: read-out: Percent Control
T8 construct: purchased Eurofins DiscoverX

kinome (kinase panel) [9] = biological target: T9, kinome (kinase panel) (Homo sapiens, UniProt P08581, M1250T); settings: […]; 1000 nM; read-out: Percent Control
T9 construct: purchased Eurofins DiscoverX

kinome (kinase panel) [10] = biological target: T10, kinome (kinase panel) (Homo sapiens, UniProt P08581, Y1235D); settings: […]; 1000 nM; read-out: Percent Control
T10 construct: purchased Eurofins DiscoverX

kinome (kinase panel) [11] = biological target: T11, kinome (kinase panel) (Homo sapiens, UniProt P10721, T670I/V559D); settings: read-out: Percent Control
T11 construct: purchased Eurofins DiscoverX

kinome (kinase panel) [12] = biological target: T12, kinome (kinase panel) (Homo sapiens, UniProt P16234); settings: PDGFRA; 1000 nM; read-out: Percent Control
T12 construct: purchased Eurofins DiscoverX

kinome (kinase panel) [13] = biological target: T13, kinome (kinase panel) (Homo sapiens, UniProt P23458); settings: 1000 nM, read-out: Percent Control
T13 construct: purchased Eurofins DiscoverX

kinome (kinase panel) [14] = biological target: T14, kinome (kinase panel) (Homo sapiens, UniProt P36896); settings: ACVR1B; 1000 nM; read-out: Percent Control
T14 construct: purchased Eurofins DiscoverX

kinome (kinase panel) [15] = biological target: T15, kinome (kinase panel) (Homo sapiens, UniProt P45985); settings: MEK4 (Entrez MAP2K4); 1000 nM; read-out: Percent Control
T15 construct: purchased Eurofins DiscoverX

kinome (kinase panel) [16] = biological target: T16, kinome (kinase panel) (Homo sapiens, UniProt P46734); settings: MEK3 (Entrez MAP2K3); 1000 nM; read-out: Percent Control
T16 construct: purchased Eurofins DiscoverX

kinome (kinase panel) [17] = biological target: T17, kinome (kinase panel) (Homo sapiens, UniProt P48730); settings: CSNK1D; 1000 nM; read-out: Percent Control
T17 construct: purchased Eurofins DiscoverX

kinome (kinase panel) [18] = biological target: T18, kinome (kinase panel) (Homo sapiens, UniProt Q00536); settings: PCTK1 (Entrez CDK16); 1000 nM; read-out: Percent Control
T18 construct: purchased Eurofins DiscoverX

kinome (kinase panel) [19] = biological target: T19, kinome (kinase panel) (Homo sapiens, UniProt Q14164); settings: IKK-epsilon (Entrez IKBKE); 1000 nM; read-out: Percent Control
T19 construct: purchased Eurofins DiscoverX

kinome (kinase panel) [20] = biological target: T20, kinome (kinase panel) (Homo sapiens, UniProt Q15835); settings: GRK1; 1000 nM; read-out: Percent Control
T20 construct: purchased Eurofins DiscoverX

kinome (kinase panel) [21] = biological target: T21, kinome (kinase panel) (Homo sapiens, UniProt Q16512); settings: PKN1; 1000 nM; read-out: Percent Control
T21 construct: purchased Eurofins DiscoverX

kinome (kinase panel) [22] = biological target: T22, kinome (kinase panel) (Homo sapiens, UniProt Q16539); settings: p38-alpha (Entrez MAPK14); 1000 nM; read-out: Percent Control
T22 construct: purchased Eurofins DiscoverX

kinome (kinase panel) [23] = biological target: T23, kinome (kinase panel) (Homo sapiens, UniProt Q32MK0); settings: MLCK (Entrez MYLK3); 1000 nM; read-out: Percent Control
T23 construct: purchased Eurofins DiscoverX

kinome (kinase panel) [24] = biological target: T24, kinome (kinase panel) (Homo sapiens, UniProt Q6PHR2); settings: ULK3; 1000 nM; read-out: Percent Control
T24 construct: purchased Eurofins DiscoverX

kinome (kinase panel) [25] = biological target: T25, kinome (kinase panel) (Homo sapiens, UniProt Q96L34); settings: MARK4; 1000 nM; read-out: Percent Control
T25 construct: purchased Eurofins DiscoverX

kinome (kinase panel) [26] = biological target: T26, kinome (kinase panel) (Homo sapiens, UniProt Q99683); settings: ASK1 (Entrez MAP3K5); 1000 nM; read-out: Percent Control
T26 construct: purchased Eurofins DiscoverX

kinome (kinase panel) [27] = biological target: T27, kinome (kinase panel) (Homo sapiens, UniProt Q9BWU1); settings: CDK11 (Entrez CDK19); 1000 nM; read-out: Percent Control
T27 construct: purchased Eurofins DiscoverX

kinome (kinase panel) [28] = biological target: T28, kinome (kinase panel) (Homo sapiens, UniProt Q9H093); settings: SNARK (NUAK2); 1000 nM; read-out: Percent Control
T28 construct: purchased Eurofins DiscoverX

kinome (kinase panel) [29] = biological target: T29, kinome (kinase panel) (Homo sapiens, UniProt Q9P1W9); settings: PIM2; 1000 nM; read-out: Percent Control
T29 construct: purchased Eurofins DiscoverX

kinome (kinase panel) [30] = biological target: T30, kinome (kinase panel) (Homo sapiens, UniProt Q9UF33); settings: EPHA6; 1000 nM; read-out: Percent Control
T30 construct: purchased Eurofins DiscoverX

kinome (kinase panel) [31] = biological target: T31, kinome (kinase panel) (Homo sapiens, UniProt Q9Y5S2); settings: MRCKB (Entrez CDC42BPB); 1000 nM; read-out: Percent Control
T31 construct: purchased Eurofins DiscoverX

kinome (kinase panel) [32] = biological target: T32, kinome (kinase panel) (Homo sapiens, UniProt Q9Y6E0); settings: MST3 (Entrez STK24); 1000 nM; read-out: Percent Control
T32 construct: purchased Eurofins DiscoverX

T13 sequence (P23458 whole entry): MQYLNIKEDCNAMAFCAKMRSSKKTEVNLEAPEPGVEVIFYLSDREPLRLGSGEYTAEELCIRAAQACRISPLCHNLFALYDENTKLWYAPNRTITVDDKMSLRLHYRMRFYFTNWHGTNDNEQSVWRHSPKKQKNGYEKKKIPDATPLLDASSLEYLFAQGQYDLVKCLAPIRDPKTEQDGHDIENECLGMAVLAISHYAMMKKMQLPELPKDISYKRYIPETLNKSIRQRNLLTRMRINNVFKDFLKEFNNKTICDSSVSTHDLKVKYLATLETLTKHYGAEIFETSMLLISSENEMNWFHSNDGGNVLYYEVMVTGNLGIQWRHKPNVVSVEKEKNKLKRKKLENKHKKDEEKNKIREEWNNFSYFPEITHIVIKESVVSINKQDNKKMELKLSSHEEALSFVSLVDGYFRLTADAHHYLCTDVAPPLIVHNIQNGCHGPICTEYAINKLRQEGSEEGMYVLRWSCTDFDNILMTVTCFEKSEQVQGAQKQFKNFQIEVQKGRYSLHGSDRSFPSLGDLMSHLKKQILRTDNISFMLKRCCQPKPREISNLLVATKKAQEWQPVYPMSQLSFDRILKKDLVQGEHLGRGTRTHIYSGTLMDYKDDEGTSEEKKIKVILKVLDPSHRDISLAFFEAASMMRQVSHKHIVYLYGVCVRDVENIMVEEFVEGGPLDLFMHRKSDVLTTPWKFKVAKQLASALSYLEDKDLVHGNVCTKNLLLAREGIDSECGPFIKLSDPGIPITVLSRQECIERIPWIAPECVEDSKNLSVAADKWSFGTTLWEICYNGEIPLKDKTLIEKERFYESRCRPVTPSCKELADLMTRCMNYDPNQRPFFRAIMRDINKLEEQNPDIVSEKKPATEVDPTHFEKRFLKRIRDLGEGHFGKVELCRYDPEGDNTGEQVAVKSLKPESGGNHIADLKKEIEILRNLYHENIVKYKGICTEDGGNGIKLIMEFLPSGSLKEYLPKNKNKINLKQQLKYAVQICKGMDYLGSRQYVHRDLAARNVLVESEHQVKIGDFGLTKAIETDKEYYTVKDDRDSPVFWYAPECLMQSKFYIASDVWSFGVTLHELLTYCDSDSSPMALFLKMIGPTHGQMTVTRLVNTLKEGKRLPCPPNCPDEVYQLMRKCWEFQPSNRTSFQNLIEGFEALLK
T10 sequence (P08581 25-1390 Y1235D): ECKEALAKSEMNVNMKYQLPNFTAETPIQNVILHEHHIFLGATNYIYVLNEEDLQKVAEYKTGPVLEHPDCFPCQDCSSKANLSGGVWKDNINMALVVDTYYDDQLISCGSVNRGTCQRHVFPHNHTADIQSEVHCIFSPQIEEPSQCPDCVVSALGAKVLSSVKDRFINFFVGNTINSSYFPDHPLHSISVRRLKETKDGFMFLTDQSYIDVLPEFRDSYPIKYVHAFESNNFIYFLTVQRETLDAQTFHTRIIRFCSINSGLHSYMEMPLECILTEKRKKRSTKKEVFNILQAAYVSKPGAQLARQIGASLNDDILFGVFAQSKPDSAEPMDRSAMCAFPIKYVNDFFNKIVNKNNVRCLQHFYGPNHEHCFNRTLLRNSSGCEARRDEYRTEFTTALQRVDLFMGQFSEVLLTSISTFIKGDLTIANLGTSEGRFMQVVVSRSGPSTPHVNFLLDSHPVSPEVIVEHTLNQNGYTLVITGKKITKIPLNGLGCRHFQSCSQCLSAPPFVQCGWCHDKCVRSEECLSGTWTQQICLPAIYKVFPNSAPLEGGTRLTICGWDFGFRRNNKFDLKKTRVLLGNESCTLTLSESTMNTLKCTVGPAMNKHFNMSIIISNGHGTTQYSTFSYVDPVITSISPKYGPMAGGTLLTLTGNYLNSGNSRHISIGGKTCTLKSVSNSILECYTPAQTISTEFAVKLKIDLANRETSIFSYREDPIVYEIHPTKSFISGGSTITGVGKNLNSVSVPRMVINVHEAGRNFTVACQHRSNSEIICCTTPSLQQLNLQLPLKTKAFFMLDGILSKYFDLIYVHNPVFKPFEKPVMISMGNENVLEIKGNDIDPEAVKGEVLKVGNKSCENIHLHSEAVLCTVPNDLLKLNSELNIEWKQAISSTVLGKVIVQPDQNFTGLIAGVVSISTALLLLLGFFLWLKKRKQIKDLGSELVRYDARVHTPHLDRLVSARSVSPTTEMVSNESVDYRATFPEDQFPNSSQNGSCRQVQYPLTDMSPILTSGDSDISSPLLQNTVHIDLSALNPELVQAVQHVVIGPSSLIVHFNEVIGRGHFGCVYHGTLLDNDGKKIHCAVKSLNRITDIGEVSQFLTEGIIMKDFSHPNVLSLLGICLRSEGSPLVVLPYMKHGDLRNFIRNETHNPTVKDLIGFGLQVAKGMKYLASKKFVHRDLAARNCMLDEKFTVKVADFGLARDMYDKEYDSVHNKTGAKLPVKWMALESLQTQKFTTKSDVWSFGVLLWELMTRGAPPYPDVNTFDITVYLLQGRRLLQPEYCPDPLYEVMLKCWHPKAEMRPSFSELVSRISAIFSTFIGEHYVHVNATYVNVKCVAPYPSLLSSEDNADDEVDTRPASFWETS
T25 sequence (Q96L34 whole entry): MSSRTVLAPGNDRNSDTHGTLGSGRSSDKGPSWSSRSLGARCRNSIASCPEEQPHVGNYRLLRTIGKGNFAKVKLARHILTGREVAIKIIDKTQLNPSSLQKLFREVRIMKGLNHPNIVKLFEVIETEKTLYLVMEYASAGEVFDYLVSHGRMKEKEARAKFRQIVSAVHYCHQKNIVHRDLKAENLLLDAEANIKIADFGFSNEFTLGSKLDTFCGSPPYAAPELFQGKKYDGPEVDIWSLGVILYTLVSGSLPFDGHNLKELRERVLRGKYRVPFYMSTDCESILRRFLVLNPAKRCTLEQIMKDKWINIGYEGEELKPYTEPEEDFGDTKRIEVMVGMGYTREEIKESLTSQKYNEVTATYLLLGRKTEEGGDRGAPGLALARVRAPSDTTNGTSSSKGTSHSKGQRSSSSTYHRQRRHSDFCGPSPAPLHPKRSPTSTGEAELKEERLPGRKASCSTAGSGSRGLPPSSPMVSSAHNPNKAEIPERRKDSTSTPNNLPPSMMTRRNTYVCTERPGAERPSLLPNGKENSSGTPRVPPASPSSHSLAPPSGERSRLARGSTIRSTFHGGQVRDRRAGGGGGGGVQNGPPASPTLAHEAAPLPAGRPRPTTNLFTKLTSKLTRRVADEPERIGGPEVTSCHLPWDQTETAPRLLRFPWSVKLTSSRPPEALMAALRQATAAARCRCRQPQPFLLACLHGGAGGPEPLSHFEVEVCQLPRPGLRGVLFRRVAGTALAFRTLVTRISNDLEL
T31 sequence (Q9Y5S2 whole entry): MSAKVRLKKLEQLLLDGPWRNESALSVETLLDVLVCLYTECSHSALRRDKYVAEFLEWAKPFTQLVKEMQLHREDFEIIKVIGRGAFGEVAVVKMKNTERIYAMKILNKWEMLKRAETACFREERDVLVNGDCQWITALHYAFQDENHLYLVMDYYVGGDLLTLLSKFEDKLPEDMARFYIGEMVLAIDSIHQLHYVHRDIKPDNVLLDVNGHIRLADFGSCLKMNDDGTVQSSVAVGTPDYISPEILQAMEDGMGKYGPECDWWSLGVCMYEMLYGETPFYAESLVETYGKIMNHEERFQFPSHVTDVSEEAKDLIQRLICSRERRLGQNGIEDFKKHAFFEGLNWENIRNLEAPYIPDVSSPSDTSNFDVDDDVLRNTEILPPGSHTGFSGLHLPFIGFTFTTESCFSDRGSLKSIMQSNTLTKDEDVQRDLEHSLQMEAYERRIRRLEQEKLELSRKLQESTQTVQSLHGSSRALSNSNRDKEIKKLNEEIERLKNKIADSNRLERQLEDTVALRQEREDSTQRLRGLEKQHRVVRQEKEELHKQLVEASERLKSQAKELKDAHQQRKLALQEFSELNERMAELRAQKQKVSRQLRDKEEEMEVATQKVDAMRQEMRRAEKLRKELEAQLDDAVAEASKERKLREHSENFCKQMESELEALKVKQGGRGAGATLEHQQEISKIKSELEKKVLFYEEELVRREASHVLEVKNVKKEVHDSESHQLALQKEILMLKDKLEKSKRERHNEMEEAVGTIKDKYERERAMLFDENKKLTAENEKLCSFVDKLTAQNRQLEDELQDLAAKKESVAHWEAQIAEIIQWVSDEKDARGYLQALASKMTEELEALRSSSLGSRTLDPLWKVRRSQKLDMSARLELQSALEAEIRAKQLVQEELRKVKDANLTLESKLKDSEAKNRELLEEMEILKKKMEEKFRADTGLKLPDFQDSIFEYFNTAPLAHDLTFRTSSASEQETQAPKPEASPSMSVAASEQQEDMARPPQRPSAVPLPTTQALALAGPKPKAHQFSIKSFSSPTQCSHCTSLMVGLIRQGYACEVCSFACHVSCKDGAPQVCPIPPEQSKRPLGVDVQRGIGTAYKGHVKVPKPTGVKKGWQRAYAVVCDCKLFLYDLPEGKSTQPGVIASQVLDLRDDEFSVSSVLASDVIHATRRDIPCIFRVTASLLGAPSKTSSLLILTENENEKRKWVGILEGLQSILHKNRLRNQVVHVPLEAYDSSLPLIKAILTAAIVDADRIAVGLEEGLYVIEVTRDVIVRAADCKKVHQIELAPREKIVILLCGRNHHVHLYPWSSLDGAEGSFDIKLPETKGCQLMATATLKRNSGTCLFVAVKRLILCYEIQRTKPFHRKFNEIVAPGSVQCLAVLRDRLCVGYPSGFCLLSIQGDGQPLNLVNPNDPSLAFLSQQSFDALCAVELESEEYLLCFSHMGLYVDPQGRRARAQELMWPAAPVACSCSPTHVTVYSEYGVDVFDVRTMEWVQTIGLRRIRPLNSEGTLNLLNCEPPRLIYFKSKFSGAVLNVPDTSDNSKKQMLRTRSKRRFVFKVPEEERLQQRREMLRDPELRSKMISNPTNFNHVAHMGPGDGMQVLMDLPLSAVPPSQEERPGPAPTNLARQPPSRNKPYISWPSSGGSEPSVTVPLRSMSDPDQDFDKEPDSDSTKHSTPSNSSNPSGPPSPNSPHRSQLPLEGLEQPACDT

CN(C)C(=O)c1cc2cnc(Nc3ccc(-c4csc5c(=O)cc(N6CCOCC6)oc45)cc3)nc2n1C1CCCC1 [SRX3177]
remaining binding at 1 µM (kinome (kinase panel) [1]): 51% | remaining binding at 1 µM (kinome (kinase panel) [2]): 97% | remaining binding at 1 µM (kinome (kinase panel) [3]): 84% | remaining binding at 1 µM (kinome (kinase panel) [4]): 78% | remaining binding at 1 µM (kinome (kinase panel) [5]): 79% | remaining binding at 1 µM (kinome (kinase panel) [6]): 88% | remaining binding at 1 µM (kinome (kinase panel) [7]): 94% | remaining binding at 1 µM (kinome (kinase panel) [8]): 99% | remaining binding at 1 µM (kinome (kinase panel) [9]): 86% | remaining binding at 1 µM (kinome (kinase panel) [10]): 100% | remaining binding at 1 µM (kinome (kinase panel) [11]): 100% | remaining binding at 1 µM (kinome (kinase panel) [12]): 60% | remaining binding at 1 µM (kinome (kinase panel) [13]; JAK1(JH1domain-catalytic)): 96% | remaining binding at 1 µM (kinome (kinase panel) [13]; JAK1(JH2domain-pseudokinase)): 9.5% | remaining binding at 1 µM (kinome (kinase panel) [14]): 100% | remaining binding at 1 µM (kinome (kinase panel) [15]): 79% | remaining binding at 1 µM (kinome (kinase panel) [16]): 76% | remaining binding at 1 µM (kinome (kinase panel) [17]): 83% | remaining binding at 1 µM (kinome (kinase panel) [18]): 21% | remaining binding at 1 µM (kinome (kinase panel) [19]): 51% | remaining binding at 1 µM (kinome (kinase panel) [20]): 79% | remaining binding at 1 µM (kinome (kinase panel) [21]): 55% | remaining binding at 1 µM (kinome (kinase panel) [22]): 100% | remaining binding at 1 µM (kinome (kinase panel) [23]): 100% | remaining binding at 1 µM (kinome (kinase panel) [24]): 51% | remaining binding at 1 µM (kinome (kinase panel) [25]): 100% | remaining binding at 1 µM (kinome (kinase panel) [26]): 100% | remaining binding at 1 µM (kinome (kinase panel) [27]): 80% | remaining binding at 1 µM (kinome (kinase panel) [28]): 70% | remaining binding at 1 µM (kinome (kinase panel) [29]): 100% | remaining binding at 1 µM (kinome (kinase panel) [30]): 99% | remaining binding at 1 µM (kinome (kinase panel) [31]): 96% | remaining binding at 1 µM (kinome (kinase panel) [32]): 93%

— PMC7385619, “A triple action CDK4/6-PI3K-BET inhibitor with augmented cancer cell cytotoxicity” (Cell Discovery, 2020)
